From patent publication US7655784B2, “Trans-sialidases obtained from Trypanosoma congolense” (N.V. Nutricia, priority 2002, dated 2010)

Columns and labels:
trans-sialidase TS1 = test: Trans-sialidase transfer activity of TS1 in the presence of salts, metal ions and putative inhibitors; type: biochemical, Trypanosoma congolense; conditions: for Salt effect: reduction of enzyme activity: 1M salt, de-salting produces enzyme activity again; for Effect of putative inhibitors: 10 mM
Experimental: (§1) In order to determine the transfer activity of the trans-sialidase, 25 μl enzyme solution in 50 mM BisTris buffer, pH7.0, are incubated together with 1 mM NeufAc-α(2-3) lactose as a donor and 0.5 mM 4-methylumbelliferyl galactoside as an acceptor in a final volume of 50 μl at 37° C. for 2 hrs. The incubation is halted by adding 1 ml ice cold water. The reaction batch is then introduced to columns previously filled with 0.3 ml Q Sepharose FF (acetate form) and pre-equilibrated with water. After having washed out the acceptor with water and having discarded the dead volume (200 μl 1N HCl), the sialated product is eluated with 1N HCl (700 μl). Following acid hydrolysis of the product at 95° C. for 45 mins and cooling on ice, the probe is neutralised with 250-290 μl 2 N NaOH and 300 μl 1M glycin/NaOH buffer pH 10.0. The fluorescence of the released methylumbelliferone is measured in black 96 well plates (Microfluor, Dynex, U.S.A.) with a stimulation wave length of 365 nm and an emission wave length of 450 nm. The activity of the enzyme corresponds to the intensity of the fluorescence measured and can be read off on a previously established calibration curve (method in accordance with Engstler et al. 1992).

trans-sialidase TS2 = test: Trans-sialidase transfer activity of TS2 in the presence of salts, metal ions and putative inhibitors; type: biochemical, Trypanosoma congolense; conditions: for Salt effect: reduction of enzyme activity: 1M salt, de-salting produces enzyme activity again; for Effect of putative inhibitors: 10 mM
Experimental: as §1

In the case of [Ca+2] [Ca^2+], the “Effect of metal ions” value (trans-sialidase TS1; 20 mM) is reported as 20 mM Ca^2+, Mg^2+, Mn^2+: no effect 5 mM and the “Effect of metal ions” value (trans-sialidase TS2; 20 mM) is reported as 20 mM Ca^2+, Mg^2+, Mn^2+: no effect 5 mM.

With [Co+2] [Co^2+] the “Effect of metal ions” value (trans-sialidase TS1; 5 mM) was “Cu^2+, Zn^2+, Fe^2+, Co^2+: little effect” and the “Effect of metal ions” value (trans-sialidase TS2; 5 mM) was “Cu^2+, Zn^2+, Fe^2+, Co^2+: little effect”.

In the case of [Cu+2] [Cu^2+], the “Effect of metal ions” value (trans-sialidase TS1; 5 mM) is reported as “Cu^2+, Zn^2+, Fe^2+, Co^2+: little effect” and the “Effect of metal ions” value (trans-sialidase TS2; 5 mM) is reported as “Cu^2+, Zn^2+, Fe^2+, Co^2+: little effect”.

[Fe+2] [Fe^2+] was tested, and the “Effect of metal ions” value (trans-sialidase TS1; 5 mM) was “Cu^2+, Zn^2+, Fe^2+, Co^2+: little effect” and the “Effect of metal ions” value (trans-sialidase TS2; 5 mM) was “Cu^2+, Zn^2+, Fe^2+, Co^2+: little effect”.

With [Cl-].[K+] [KCl] the “Salt effect: reduction of enzyme activity” value (“Salt effect: reduction” for short) (trans-sialidase TS1) was “enzymes by 50%, de-salting produces enzyme” and the “Salt effect: reduction” value (trans-sialidase TS2) was “enzymes by 50%, de-salting produces enzyme”.

For [Mg+2] [Mg^2+], the “Effect of metal ions” value (trans-sialidase TS1; 20 mM) was 20 mM Ca^2+, Mg^2+, Mn^2+: no effect 5 mM and the “Effect of metal ions” value (trans-sialidase TS2; 20 mM) was 20 mM Ca^2+, Mg^2+, Mn^2+: no effect 5 mM.

[Mn+2] [Mn^2+] was tested, and the “Effect of metal ions” value (trans-sialidase TS1; 20 mM) was 20 mM Ca^2+, Mg^2+, Mn^2+: no effect 5 mM and the “Effect of metal ions” value (trans-sialidase TS2; 20 mM) was 20 mM Ca^2+, Mg^2+, Mn^2+: no effect 5 mM.

For O=C(O)C(=O)Nc1ccc([N+](=O)[O-])cc1 [N-(4-nitrophenyl)oxamic acid, reference compound], the “Effect of putative inhibitors” value (trans-sialidase TS1) was 10 mM N-(4-nitrophenyl)oxamic acid: little and the “Effect of putative inhibitors” value (trans-sialidase TS2) was 10 mM N-(4-nitrophenyl)oxamic acid: little.

With CC(=O)N[C@H]1[C@H]([C@H](O)[C@H](O)CO)OC(C(=O)O)=C[C@@H]1O [N-acetyl-2,3-didehydro-2-deoxyneuraminic acid, reference compound] the “Effect of putative inhibitors” value (trans-sialidase TS1) was “acid: little inhibition” and the “Effect of putative inhibitors” value (trans-sialidase TS2) was “acid: little inhibition”.

In the case of [Cl-].[Na+] [NaCl], the “Salt effect: reduction” value (trans-sialidase TS1) is reported as “enzymes by 50%, de-salting produces enzyme” and the “Salt effect: reduction” value (trans-sialidase TS2) is reported as “enzymes by 50%, de-salting produces enzyme”.

[Zn+2] [Zn^2+] was tested, and the “Effect of metal ions” value (trans-sialidase TS1; 5 mM) was “Cu^2+, Zn^2+, Fe^2+, Co^2+: little effect” and the “Effect of metal ions” value (trans-sialidase TS2; 5 mM) was “Cu^2+, Zn^2+, Fe^2+, Co^2+: little effect”.
